One assay addresses T1, A-Raf kinase (Homo sapiens, UniProt P10398, Y301D/Y302D).
T1 construct: purchased Sigma
The assay is described as follows: Biochemical assay for A-Raf.1 (coupled pyruvate kinase/lactate dehydrogenase). The settings on record: read-out: ARAF.1 IC50. The protocol:
Biochemical assay for A-Raf.1
(§1) Activity of A-Raf kinase (SEQ. ID NO. 1) was determined spectroscopically using a coupled pyruvate kinase/lactate dehydrogenase assay that continuously monitors the ATP hydrolysis-dependent oxidation of NADH (e.g., Schindler et al., Science, 2000, 289, 1938-1942). Assays were conducted in 384-well plates (100 μL final volume) using 5.55 nM A-Raf (Sigma), 1.5 units pyruvate kinase, 2.1 units lactate dehydrogenase, 1 mM phosphoenol pyruvate, 0.28 mM NADH, 30.1 nM MEK (SignalChem), and 1 mM ATP in assay buffer (100 mM Tris, pH 7.5, 15 mM MgCl2, 0.5 mM DTT, 0.1% octyl-glucoside, 0.002% (w/v) BSA, and 0.002% Triton X-100). Inhibition of A-Raf was measured by adding serial diluted test compound (final assay concentration of 1% DMSO). A decrease in absorption at 340 nm was monitored continuously for 6 h at 30° C. on a multi-mode microplate reader (BioTek). The reaction rate was calculated using the 4 to 5 h time frame. The reaction rate at each concentration of compound was converted to percent inhibition using controls (i.e., reaction with no test compound and reaction with a known inhibitor) and IC50 values were calculated by fitting a four-parameter sigmoidal curve to the data using Prism (GraphPad software).

A further assay concerns the target T2, B-Raf kinase (Homo sapiens, UniProt P15056).
T2 construct: GST (N); purchased Sigma
The assay is described as follows: Biochemical assay for B-Raf.1 (coupled pyruvate kinase/lactate dehydrogenase). The following applies: read-out: BRAF.1 IC50. The protocol:
Biochemical Assay for B-Raf.1
as §1, with “B-Raf” for “A-Raf”, “NO: 2)” for “NO. 1)”, “0.13” for “5.55”

The target in another assay is T3, C-Raf kinase (Homo sapiens, UniProt P04049, Y340D/Y341D).
T3 construct: Y340D,; GST (N); purchased Sigma
The experiment in a line: Biochemical assay for C-Raf.1 (coupled pyruvate kinase/lactate dehydrogenase). The following applies: read-out: CRAF.1 IC50. The protocol: Biochemical Assay for C-Raf.1
as §1, with “C-Raf” for “A-Raf”, “NO: 3)” for “NO. 1)”, “0.43” for “5.55”

In another assay the target is T4, B-Raf (V600E) kinase (Homo sapiens, UniProt P15056, V600E).
T4 construct: B-Raf (V600E) residues 416-766 with a; GST (N); purchased SignalChem
The experiment in a line: Biochemical assay for B-Raf (V600E).1 (coupled pyruvate kinase/lactate dehydrogenase). The following applies: read-out: BRAF V600E.1 IC50. The protocol:
Biochemical Assay for B-Raf (V600E).1
Activity of B-Raf (V600E) (SEQ. ID NO: 4) kinase was determined spectroscopically using a coupled pyruvate kinase/lactate dehydrogenase assay that continuously monitors the ATP hydrolysis-dependent oxidation of NADH (e.g., Schindler et al., Science, 2000, 289, 1938-1942). Assays were conducted in 384-well plates (100 μL final volume) using 0.03 nM B-Raf (SignalChem), 1.5 units pyruvate kinase, 2.1 units lactate dehydrogenase, 1 mM phosphoenol pyruvate, 0.28 mM NADH, 30.1 nM MEK (SignalChem), and 1 mM ATP in assay buffer (100 mM Tris, pH 7.5, 15 mM MgCl2, 0.5 mM DTT, 0.1% octyl-glucoside, 0.002% (w/v) BSA, and 0.002% Triton X-100). Inhibition of B-Raf (V600E) was measured by adding serial diluted test compound (final assay concentration of 1% DMSO). A decrease in absorption at 340 nm was monitored continuously for 6 h at 30° C. on a multi-mode microplate reader (BioTek). The reaction rate was calculated using the 3 to 4 h time frame. The reaction rate at each concentration of compound was converted to percent inhibition using controls (i.e., reaction with no test compound and reaction with a known inhibitor) and IC50 values were calculated by fitting a four-parameter sigmoidal curve to the data using Prism (GraphPad software).

In another assay the test system is A375 cells. The experiment in a line: A375 cell proliferation assay (1), resazurin, 96-well. The settings on record: Homo sapiens, A-375, inhibition of cell proliferation. It counts as cell-based. The protocol: A375 Cell Proliferation Assay (1)
A375 cells (catalog (#CRL-1619) are obtained from the American Type Culture Collect (ATTC, Manassas, VA). Briefly, cells were grown in DMEM High Glucose supplemented with 10% characterized fetal bovine serum (Invitrogen, Carlsbad, CA) and 1% Penicillin/Streptomycin/L-Glutamine at 37° C., 5% CO2, and 95% humidity. Cells are expanded until reaching 70-95% confluency at which point they are sub-cultured or harvested for assay use. A serial dilution of test compound is dispensed into a 96-well black clear bottom plate in triplicate. Two thousand five hundred cells are added per well in 200 μL complete growth medium in the 96-well plate. Plates are incubated for 67-72 hours at 37° C., 5% CO2, and 95% humidity. At the end of the incubation, 40 μL of a 440 μM solution of resazurin (Sigma, St. Louis, MO) in PBS is added to each well of the plate and plates are incubated for an additional 5-6 hours at 37° C., 5% CO2, and 95% humidity. Plates are read on a Synergy2 or equivalent reader (Biotek, Winooski VT) using an excitation of 540 nm and an emission of 600 nm. Data is analyzed using Prism software (GraphPad, San Diego, CA) to calculate IC50 values.

SMILES strings stand for the structures.

The term IC50 denotes the point on the concentration scale where inhibition reaches its midpoint.

T3 sequence (P04049 307-648 Y340D/Y341D): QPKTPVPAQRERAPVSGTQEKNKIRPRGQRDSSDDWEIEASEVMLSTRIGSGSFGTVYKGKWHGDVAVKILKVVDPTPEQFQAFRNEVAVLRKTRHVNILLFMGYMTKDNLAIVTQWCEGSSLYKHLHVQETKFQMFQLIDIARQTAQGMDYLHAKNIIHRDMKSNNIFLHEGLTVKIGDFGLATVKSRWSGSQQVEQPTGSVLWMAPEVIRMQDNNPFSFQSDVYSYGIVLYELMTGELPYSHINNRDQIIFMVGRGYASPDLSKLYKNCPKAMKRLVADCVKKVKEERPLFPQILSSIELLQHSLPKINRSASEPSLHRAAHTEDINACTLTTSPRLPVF
T2 sequence (P15056 416-766): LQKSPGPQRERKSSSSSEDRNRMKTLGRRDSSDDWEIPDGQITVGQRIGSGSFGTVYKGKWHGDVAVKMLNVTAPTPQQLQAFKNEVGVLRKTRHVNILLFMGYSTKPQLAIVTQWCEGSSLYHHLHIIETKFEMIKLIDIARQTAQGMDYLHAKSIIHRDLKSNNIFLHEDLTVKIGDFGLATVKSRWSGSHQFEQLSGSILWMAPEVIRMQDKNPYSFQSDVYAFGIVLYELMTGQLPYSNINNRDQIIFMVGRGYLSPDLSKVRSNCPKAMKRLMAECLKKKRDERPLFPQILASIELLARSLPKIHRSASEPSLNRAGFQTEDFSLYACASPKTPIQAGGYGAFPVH
T1 sequence (P10398 with tags, fused parts or gaps Y301D/Y302D): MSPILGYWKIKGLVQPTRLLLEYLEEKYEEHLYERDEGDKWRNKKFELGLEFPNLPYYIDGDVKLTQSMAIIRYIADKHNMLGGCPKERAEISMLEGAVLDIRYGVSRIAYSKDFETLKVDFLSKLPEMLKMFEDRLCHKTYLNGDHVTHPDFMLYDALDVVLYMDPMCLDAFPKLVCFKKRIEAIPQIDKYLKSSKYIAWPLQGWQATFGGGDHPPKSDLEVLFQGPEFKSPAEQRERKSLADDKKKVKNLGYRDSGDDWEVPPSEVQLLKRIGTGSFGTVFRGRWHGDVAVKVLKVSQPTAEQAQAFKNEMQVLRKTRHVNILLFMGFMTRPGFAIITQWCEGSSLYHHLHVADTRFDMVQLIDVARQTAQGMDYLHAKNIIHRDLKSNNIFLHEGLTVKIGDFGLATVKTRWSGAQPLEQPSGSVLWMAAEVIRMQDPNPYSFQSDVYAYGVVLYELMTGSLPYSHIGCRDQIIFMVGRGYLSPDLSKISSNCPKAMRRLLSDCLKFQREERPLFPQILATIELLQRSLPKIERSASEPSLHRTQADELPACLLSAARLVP
T4 sequence (P15056 416-766 V600E): as the sequence (P15056 416-766) above, with V185E counted along it

With `Cc1ccc(NC(=O)NCCC(C)(C)C#N)cc1-c1cc(-c2cnn(C)c2)nc(N2CCOCC2)c1` [Example 21], the IC50 on A-Raf kinase is greater than 1000 nM; at B-Raf kinase, 500 to 1000 nM; on C-Raf kinase, 100 to 500 nM; on B-Raf (V600E) kinase, no more than 100 nM; with A375 cells, 1000 to 10000 nM.

Turning to `CC(=O)Nc1cc(-c2cc(-c3cc(NC(=O)NCCC(C)(C)C(F)(F)F)c(F)cc3C)cc(C3CC3)n2)ccn1` [Example 56], the concentration for half-maximal inhibition (IC50) on A-Raf kinase was greater than 1000 nM; on B-Raf kinase, no more than 100 nM; at C-Raf kinase, no more than 100 nM; at B-Raf (V600E) kinase it was no more than 100 nM; in the assay on A375 cells, 500 to 1000 nM.

Take `Cc1ccc(NC(=O)N[C@@H]2CCc3ccccc32)cc1-c1cc(OCCO)nc(N2CCOCC2)c1` [Example 15]: the IC50 at A-Raf kinase was greater than 1000 nM; on B-Raf kinase, 100 to 500 nM; at C-Raf kinase it was no more than 100 nM; at B-Raf (V600E) kinase, no more than 100 nM; in the assay with A375 cells, 1000 to 10000 nM.

Consider `Cc1cc(F)c(NC(=O)NCCC2(C)CC2)cc1-c1cc(OC2CCN(C)CC2)nc(-c2ccncc2)c1` [Example 36], for which the IC50 is greater than 1000 nM on A-Raf kinase; 100 to 500 nM at B-Raf kinase; 100 to 500 nM at C-Raf kinase; no more than 100 nM at B-Raf (V600E) kinase; 1000 to 10000 nM with A375 cells.

`Cc1cc(F)c(NC(=O)NCCC(C)(C)C)cc1-c1cc(OCCO)nc(C2CCOCC2)c1` [Example 9]: the IC50 on A-Raf kinase is greater than 1000 nM; on B-Raf kinase, no more than 100 nM; on C-Raf kinase, no more than 100 nM; on B-Raf (V600E) kinase, no more than 100 nM; in the assay with A375 cells it was 100 to 500 nM.

`Cc1ncc(NC(=O)NCCC(C)(C)C)cc1-c1cc(N2CCOCC2)nc(N2CCOCC2)c1` [Example 19]: the IC50 at A-Raf kinase was greater than 1000 nM; at B-Raf kinase, 500 to 1000 nM; on C-Raf kinase, 100 to 500 nM; on B-Raf (V600E) kinase, no more than 100 nM; in the assay on A375 cells it was 1000 to 10000 nM.

With `COC(C)(C)CCNC(=O)Nc1cc(-c2cc(OCCO)nc(-c3ccncc3)c2)c(C)cc1F` [Example 40], the IC50 on A-Raf kinase was greater than 1000 nM; on B-Raf kinase it was 100 to 500 nM; at C-Raf kinase it was 100 to 500 nM; on B-Raf (V600E) kinase it was no more than 100 nM; in the assay with A375 cells, 1000 to 10000 nM.

Turning to `CC(=O)Nc1cc(-c2cc(-c3cc(NC(=O)NCCC4(C)CC4)c(F)cc3C)ccn2)ccn1` [Example 2, N-(4-(4-fluoro-2-methyl-5-(3-(2-(1-methylcyclopropyl)ethyl)ureido)phenyl)-[2,4′-bipyridin]-2′-yl)acetamide], the IC50 is greater than 1000 nM at A-Raf kinase; 500 to 1000 nM at B-Raf kinase; 100 to 500 nM at C-Raf kinase; no more than 100 nM on B-Raf (V600E) kinase; 1000 to 10000 nM with A375 cells.

For `CNc1cc(-c2cc(-c3cc(NC(=O)NCCC4(C)CC4)c(F)cc3C)cc(OCCO)n2)ccn1` [Example 27], the half-inhibitory concentration (IC50) is greater than 1000 nM on A-Raf kinase; no more than 100 nM on B-Raf kinase; no more than 100 nM on C-Raf kinase; no more than 100 nM at B-Raf (V600E) kinase; 500 to 1000 nM with A375 cells.

For the compound `Cc1cc(F)c(NC(=O)NC2CCC(F)(F)CC2)cc1-c1cc(-c2cnn(C)c2)nc(N2CCOCC2)c1` [Example 39], the IC50 at A-Raf kinase is greater than 1000 nM; at B-Raf kinase, no more than 100 nM; on C-Raf kinase, no more than 100 nM; on B-Raf (V600E) kinase, no more than 100 nM; in the assay on A375 cells, 1000 to 10000 nM.

Regarding `Cc1cc(F)c(NC(=O)Nc2cnn(C(C)(C)C)c2)cc1-c1cc(OCCN(C)C)nc(N2CCOCC2)c1` [Example 29], the IC50 at A-Raf kinase was greater than 1000 nM; at B-Raf kinase, 500 to 1000 nM; at C-Raf kinase, 100 to 500 nM; at B-Raf (V600E) kinase, no more than 100 nM; with A375 cells, 1000 to 10000 nM.

Take `Cc1cc(F)c(NC(=O)NCCC(C)(C)F)cc1-c1cc(OCCO)nc(-c2ccncc2)c1` [Example 25]: the IC50 on A-Raf kinase is greater than 1000 nM; at B-Raf kinase it was 100 to 500 nM; at C-Raf kinase, no more than 100 nM; at B-Raf (V600E) kinase, no more than 100 nM; in the assay on A375 cells, 1000 to 10000 nM.

As to `Cc1cc(F)c(NC(=O)NCCC(C)(C)C#N)cc1-c1cc(OCCO)nc(-c2ccncc2)c1` [Example 41], the half-inhibitory concentration (IC50) on A-Raf kinase is greater than 1000 nM; on B-Raf kinase it was 100 to 500 nM; on C-Raf kinase it was 100 to 500 nM; at B-Raf (V600E) kinase, no more than 100 nM; with A375 cells, 1000 to 10000 nM.

Values taken from patent US20230357179A1, “RAF KINASE INHIBITORS AND METHODS OF USE THEREOF” (Deciphera Pharmaceuticals, LLC, priority 2021, published 2023).
